Reference: PMC5374619, “The synthetic peptide CIGB-300 modulates CK2-dependent signaling pathways affecting the survival and chemoresistance of non-small cell lung cancer cell lines” (Cancer Cell International, 2017)
Positions of bridges follow the written chain, without caps; N, C: chain ends. Non-standard residues stand in square brackets, D forms with d. Residues, ends and D or L forms follow the SMILES beside them. βAla = NCCC(=O)O

Assays:
A549 cells = assay: Cell viability, MTS assay, monolayer; format: cell-based, human; settings: dose selected from the viability results
Experimental: (§1) We used two human non-small cell lung cancer (NSCLC) derived cell lines: the adenosquamous cell carcinoma NCI-H125 (CRL-5801) and the adenocarcinoma NIH-A549 (CCL-185). The murine L Wnt-3A cell line (CRL-2647) was used in order to produce conditioned media (CM) containing the wnt3a factor, following ATCC’s instructions. All cell lines were obtained from ATCC. H125 was grown in RPMI medium supplemented with 10% FBS and 80 µg/ml gentamycin. A549 and L cells were grown in DMEM media, with the above mentioned supplementation. All cell lines were cultured at 37 °C in a humidified air atmosphere with 5% CO2.
(§2) To assess the effect of CIGB-300 or cisplatin on cell viability, 1 × 10^4 cells/well were seeded into 96 well plates in standard culture conditions. Twenty-four hours later cells were treated with different doses of CIGB-300 (25–400 μM) or cisplatin (0.3–30 μM) during 72 h. Cell proliferation was evaluated after 72 h using the MTS assay (Celltiter 96TM Non Radioactive Proliferation Assay, Promega), as described by the manufacturer. Data were analyzed using the R package “ic50” [33] in order to determine the IC50 values for each drug. Alternatively, proliferative potential was determined by assessing cell number. Briefly, cells were seeded onto 35 mm Petri dishes, treated and after 72 h wells were washed twice with PBS, trypsinized, centrifuged, resuspended in a proper volume and finally counted using an hemocytometer and trypan blue exclusion. For apoptosis determination, A549 and A549-cispR cells growing on glass coverslips were treated with 300 μM of CIGB-300 for 18 h and then stained with Acridine orange (10 μg/ml) and Ethidium bromide (10 μg/ml). Visualization was performed with a Nikon, Eclipse E400 epifluorescence microscope. Uniform green nuclei with organized structure were considered as live cells. Bright green or orange to red nuclei were classified as early or late apoptotic cells respectively. Uniformly orange to red nuclei with organized structure were ascribed as necrotic cells. The percentage of dead cells was determined for each cell line.

H125 cells = assay: Cell viability, MTS assay, monolayer; format: cell-based, human
Experimental: as §1, §2

H125 spheroids = assay: 3D growth inhibition assay, multicellular tumor spheroids; format: cell-based, human; settings: IC25 and IC50 doses of monolayers, after 5 days of treatment, medium replaced every 48 h
[1] = target: T1, α7/C8 (PSMA3) in H125 cells (Homo sapiens, UniProt P25788); assay: Confocal immunofluorescence, co-occurrence with α7/C8; format: cell-based; settings: H125, biotin-conjugated CIGB-300 30 min, cells with cytoplasmic signal, Manders coefficient
T1 construct: endogenous in cells; host or cells: H125 (NCI-H125) human NSCLC cells
Experimental: H125 cells growing on glass coverslips were treated with biotin-conjugated CIGB-300 for 30 min, washed twice with PBS, fixed in ice cold paraformaldehyde, permeabilized and blocked with PBS containing 5% bovine serum albumin for 1 h at RT. α7/C8 protein was detected by incubation with a specific primary antibody diluted in PBS containing 5% BSA, followed by an incubation with a secondary antibody coupled to Alexa 647 and with Streptavidin-FITC conjugated for 1 h at RT. Nuclei were stained with DAPI. Images were obtained in a LSM 510 Meta confocal Zeiss microscope. Confocal images were processed for presentation with ImageJ. Background of each channel was subtracted. Pearson’s and Mander’s coefficients were calculated using the JACoP plugin [38]. Single cell analysis for 15–20 representative cells was performed on three independent experiments.

proteasome in H125 cells = assay: Proteasome-Glo Chymotrypsin-Like Cell-Based Assay; set-up: species or system human; settings: H125, CIGB-300 30 min, luminescence
Experimental: Proteasome activity was assessed in H125 cells using the Proteasome-Glo Chymotrypsin-Like Cell-Based Assay (Promega) following manufacturer’s instructions. Briefly, H125 cells were plated onto 96-well plates and 24 h later treated with CIGB-300 (30 min) or with Bortezomib (4 h). Briefly: 100 µl of Proteasome-Glo™ Cell-Based Reagent were added to each 100 µl of sample and incubated at RT for 10 min. Luminescence emission was measured with a Multimode Microplate Reader, Synergy luminometer (Biotek).

[2] = test system: NF-κB p65/relA in H125 cells; assay: Western blot of nuclear p65/RelA; format: cell-based, human; settings: H125, low-lethal dose (IC25), Western blot of nuclear extracts, with or without PMA
Experimental: (§3) For Wnt/β-CATENIN pathway studies, H125 sub-confluent monolayers were first incubated during 24 h with 50% of CM containing the wnt3a factor and then treated for another 6 h with a low-lethal dose of CIGB-300 (IC25) or during 2 h with the CK2 competitive inhibitor TBB (25 μM) as a control. […] For the analysis of NF-κB downstream targets, H125, A549 or A549-Rcisp cells were incubated for 2 h with CIGB-300 (IC50). In the case of Bortezomib, cells were previously pretreated with 8 nM of this drug during 4 h.
(§4) In order to determine β-CATENIN expression levels, cytoplasmic proteins were extracted using saponin buffer. Briefly, monolayer cultures were incubated for 20 min with ice-cold 0.1% saponin lysis buffer (25 mM Hepes, 75 mM potassium acetate and 0.1% saponin plus phosphatase and protease inhibitors). The extraction procedure was carried out twice and the extracts were pooled prior to their centrifugation. For NF-κB detection, nuclear and cytoplasmic proteins were separated by differential centrifugation following Abcam protocol. Briefly, semiconfluent monolayers were washed twice with ice-cold PBS and then collected in 250 μl of Fractionation Buffer (HEPES 20 mM, KCl 10 mM, MgCl2 2 mM, EDTA 1 mM and 2-Mercaptoethanol […]) with protease and phosphatase inhibitors by scrapping with a Teflon scrapper. […]

[3] = test system: NF-κB-RE-luc in H125 cells; assay: NF-κB-dependent reporter gene expression; format: cell-based, human; settings: H125, PMA 16 nM 6 h, CIGB-300 IC25 during first hour, dual luciferase
Experimental: H125 cells were transiently co-transfected with NF-κB-RE-luc Luciferase Reporter Vector pGL4.32 and the Renilla Luciferase Control Reporter Vector pRL-TK (Promega, Madison, WI) in a 10:1 ratio, using Fugene (Promega) following manufacturer’s instructions. Briefly, 1 × 10^5 cells/well were seeded onto 24-well plates and transfected the next day. Six hours after adding transfection reagents, cells were washed and complete media was added. After an overnight recovery, cells were treated for 6 h with PMA (16 nM), in presence or not of CIGB-300 (IC25) during the first hour. Finally cells were lysed and the luciferase activities were determined using the Dual-Luciferase Reporter Assay System (Promega) and normalized to the constitutive Renilla luciferase activity.

β-CATENIN in H125 cells = assay: Western blot of cytoplasmic β-CATENIN; format: cell-based, human
Experimental: as §3, §4

[4] = test system: A549 and A549-cispR cells; assay: Apoptosis, acridine orange/ethidium bromide double staining; format: cell-based, human; settings: 300 μM CIGB-300, 18 h
Experimental: To assess the effect of CIGB-300 or cisplatin on cell viability, 1 × 10^4 cells/well were seeded into 96 well plates in standard culture conditions. Twenty-four hours later cells were treated with different doses of CIGB-300 (25–400 μM) or cisplatin (0.3–30 μM) during 72 h. Cell proliferation was evaluated after 72 h using the MTS assay (Celltiter 96TM Non Radioactive Proliferation Assay, Promega), as described by the manufacturer. Data were analyzed using the R package “ic50” [33] in order to determine the IC50 values for each drug. Alternatively, proliferative potential was determined by assessing cell number. Briefly, cells were seeded onto 35 mm Petri dishes, treated and after 72 h wells were washed twice with PBS, trypsinized, centrifuged, resuspended in a proper volume and finally counted using an hemocytometer and trypan blue exclusion. For apoptosis determination, A549 and A549-cispR cells growing on glass coverslips were treated with 300 μM of CIGB-300 for 18 h and then stained with Acridine orange (10 μg/ml) and Ethidium bromide (10 μg/ml). Visualization was performed with a Nikon, Eclipse E400 epifluorescence microscope. Uniform green nuclei with organized structure were considered as live cells. Bright green or orange to red nuclei were classified as early or late apoptotic cells respectively. […] The percentage of dead cells was determined for each cell line.

[5] = up to 40 mg/kg/day intravenously; cited from earlier work
[6] = 24 h post intravenous injection; cited from earlier work
[7] = test system: A549 and A549-cispR cells; assay: Viability by cell number after cisplatin; format: cell-based, human; settings: cell number 72 h after cisplatin, untreated set as 100%
From the text: Parental A549 cells were maintained in culture during the same period.

Row | SMILES | IC25 (low-lethal dose) (A549 cells) | IC25 (low-lethal dose) (H125 cells; dose selected from the viability results) | volume of treated spheroids compared with untreated controls (H125 spheroids) | α7/C8 coincident with CIGB-300 presence [1] | proteasomal activity (proteasome in H125 cells) | nuclear levels of p65/relA [2] | NF-κB transcriptional response [3] | β-CATENIN cytoplasmic accumulation with active Wnt pathway (β-CATENIN in H125 cells; H125, 24 h 50% CM with wnt3a, then CIGB-300 IC25 6 h or TBB 25 μM 2 h) | basal levels of cytoplasmic β-CATENIN (β-CATENIN in H125 cells; H125, low-lethal dose CIGB-300 6 h, no wnt3a) | number of dead cells on A549-cispR vs A549 [4] | tolerability of high doses [5] | peptide uptake at tumor site [6] | IC50 (H125 cells; MTS assay, 72 h treatment, R package ic50, three independent experiments) | viability of A549-cispR relative to parental A549 after cisplatin treatment [7]
1 | CSCC[C@@H]1NC(=O)[C@H](Cc2c[nH]c3ccccc23)NC(=O)[C@@H](NC(=O)CCNC(=O)[C@H](CCC(N)=O)NC(=O)[C@@H]2CCCN2C(=O)[C@@H]2CCCN2C(=O)[C@H](CCCNC(=N)N)NC(=O)[C@H](CCCNC(=N)N)NC(=O)[C@H](CCCNC(=N)N)NC(=O)[C@H](CCC(N)=O)NC(=O)[C@H](CCCNC(=N)N)NC(=O)[C@H](CCCNC(=N)N)NC(=O)[C@H](CCCCN)NC(=O)[C@H](CCCCN)NC(=O)[C@H](CCCNC(=N)N)NC(=O)CN)CSSC[C@@H](C(=O)O)NC(=O)[C@H]([C@@H](C)O)NC(=O)CNC(=O)[C@H](CC(C)C)NC(=O)[C@H](Cc2c[nH]cn2)NC(=O)[C@H](CCCNC(=N)N)NC(=O)[C@@H]2CCCN2C(=O)[C@H](CO)NC1=O [CIGB-300] (H-GRKKRRQRRRPPQ[βAla]CWMSPRHLGTC-OH; disulfide 15-25; N-terminus and C-terminus assumed) | 150 µM | 60 µM | significantly lower | More than 80% | increased proteasomal activity | reduced the nuclear levels | decreased NF-κB transcriptional response | partially reverted | not reduced | significantly increased | safe, well tolerated and non-toxic | up to 1.5% |  | 
2 | N.N.[Cl][Pt][Cl] [cisplatin, cisdiammine-dichloro-platinum, reference compound] |  |  |  |  |  |  |  |  |  |  |  |  | 1 µM | twofold higher
